From patent publication US20140206682A1, “COMPOUNDS AND COMPOSITIONS AS PDGFR KINASE INHIBITORS” (NOVARTIS PHARMACEUTICALS UK LIMITED, priority 2011, published 2014) come the findings set out here.

Molecules are shown by their SMILES.

One assay deals with PDGFR. Kind of assay: Rat A10 cell proliferation assay. Type of assay: cell-based. The settings on record: Table 1; Rat A10 cells, recombinant rat PDGF-BB, CellTiter-Glo after 68 hours. In short, it runs like this:
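Rat A10 cells in DMEM with 1% FBS and 10 ng/mL rat PDGF-BB, preincubated 4 h at 37 °C, then exposed to 3-fold serially diluted compound for 68 h. Viability/proliferation read as CellTiter-Glo luminescence.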
In general terms: Cellular ATP, detected with luciferase, serves as a proxy for viable cell number.
In the case of `[2H]c1c([2H])c([2H])n2c(C(=O)Nc3cc(C(=O)N[C@@H]4c5ccccc5C[C@@H]4O)ccc3F)cnc2c1[2H]` [F25, N-(2-fluoro-5-{[(1R,2S)-2-hydroxy-2,3-dihydro-1H-inden-1-yl]carbamoyl}phenyl)-5,6,7,8-tetrahydrogenioimidazo[1,2-a]pyridine-3-carboxamide], the IC50 was 65 nM.

On to `O=C(N[C@@H]1CCCC[C@@H]1O)c1ccc(F)c(NC(=O)c2cnc3ccccn23)c1` [F11, N-(2-fluoro-5-{[(1R,2S)-2-hydroxycyclohexyl]carbamoyl}phenyl)imidazo[1,2-a]pyridine-3-carboxamide], for which the IC50 came to 199 nM. Still for that read-out and setting: under `COC[C@H](NC(=O)c1ccc(F)c(NC(=O)c2cnc3cc(C)ccn23)c1)[C@@H](O)c1ccccc1` [F126, N-(2-fluoro-5-{[(1S,2S)-1-hydroxy-3-methoxy-1-phenylpropan-2-yl]carbamoyl}phenyl)-7-methylimidazo[1,2-a]pyridine-3-carboxamide] stands 8 nM. `O=C(N[C@H](CO)c1ccccc1)c1ccc(F)c(NC(=O)c2cnc3ccccn23)c1` [F112, N-(2-fluoro-5-{[(1S)-2-hydroxy-1-phenylethyl]carbamoyl}phenyl)imidazo[1,2-a]pyridine-3-carboxamide]: the IC50 was 76 nM. On the same count and under the same terms, the result for `Cc1ccc(C(=O)NC(CO)Cc2ccccc2)cc1NC(=O)c1cnc2ccccn12` (centres unmarked) [F1, N-{5-[(1-hydroxy-3-phenylpropan-2-yl)carbamoyl]-2-methylphenyl}imidazo[1,2-a]pyridine-3-carboxamide] reads 82 nM; that for `Cn1nccc1-c1ccn2c(C(=O)Nc3cc(C(=O)N[C@H]4Cc5ccccc5[C@H]4O)ccc3F)cnc2c1` [F16, N-(2-fluoro-5-{[(1R,2S)-1-hydroxy-2,3-dihydro-1H-inden-2-yl]carbamoyl}phenyl)-7-(1-methyl-1H-pyrazol-5-yl)imidazo[1,2-a]pyridine-3-carboxamide], 57 nM.

For the compound `Cc1ccn2c(C(=O)Nc3cc(C(=O)N[C@@H](CO)[C@@H](O)c4ccccc4)ccc3F)cnc2c1` [F127, N-(5-{[(1S,2S)-1,3-dihydroxy-1-phenylpropan-2-yl]carbamoyl}-2-fluorophenyl)-7-methylimidazo[1,2-a]pyridine-3-carboxamide], the IC50 worked out at 86 nM. As for `O=C(N[C@@H]1c2ccccc2C[C@@H]1O)c1ccc(F)c(NC(=O)c2cnc3cc(F)ccn23)c1` [F18, 7-fluoro-N-(2-fluoro-5-{[(1R,2S)-2-hydroxy-2,3-dihydro-1H-inden-1-yl]carbamoyl}phenyl)imidazo[1,2-a]pyridine-3-carboxamide], the IC50 worked out at 86 nM. Still for that read-out and setting: under `O=C(NC[C@@H](O)c1ccccc1F)c1ccc(F)c(NC(=O)c2cnc3ccccn23)c1` [F122, N-(2-fluoro-5-{[(2S)-2-(2-fluorophenyl)-2-hydroxyethyl]carbamoyl}phenyl)imidazo[1,2-a]pyridine-3-carboxamide] stands 60 nM.

As for `C[C@@]1(O)CCCC[C@@H]1NC(=O)c1ccc(F)c(NC(=O)c2cnc3ccccn23)c1` [F124, N-(2-fluoro-5-{[(1S,2R)-2-hydroxy-2-methylcyclohexyl]carbamoyl}phenyl)imidazo[1,2-a]pyridine-3-carboxamide], the IC50 stood at 187 nM. Turning to `Cc1ccn2c(C(=O)Nc3cc(C(=O)N[C@H]4CCCC[C@@H]4O)ccc3F)cnc2c1` [F115, N-(2-fluoro-5-{[(1S,2S)-2-hydroxycyclohexyl]carbamoyl}phenyl)-7-methylimidazo[1,2-a]pyridine-3-carboxamide], the IC50 stood at 44 nM.

Consider `Cc1ccc(C(=O)NCc2ccccc2N2CCCC(O)C2)cc1NC(=O)c1cnc2ccccn12` (centres unmarked) [F30, N-[5-({[2-(3-hydroxypiperidin-1-yl)phenyl]methyl}carbamoyl)-2-methylphenyl]imidazo[1,2-a]pyridine-3-carboxamide], for which the IC50 is 27 nM. On the same count and under the same terms, the result for `O=C(N[C@H]1c2ccccc2C[C@@H]1O)c1ccc(F)c(NC(=O)c2cnc3ccccn23)c1` [F8, N-(2-fluoro-5-{[(1S,2S)-2-hydroxy-2,3-dihydro-1H-inden-1-yl]carbamoyl}phenyl)imidazo[1,2-a]pyridine-3-carboxamide] reads 38 nM; that for `O=C(N[C@@H]1c2ccccc2OC[C@@H]1O)c1ccc(F)c(NC(=O)c2cnc3ccccn23)c1` (racemic) [F34, N-(2-fluoro-5-{[(3R,4R)-3-hydroxy-3,4-dihydro-2H-1-benzopyran-4-yl]carbamoyl}phenyl)imidazo[1,2-a]pyridine-3-carboxamide], 195 nM; that for `COc1ccc2c(c1)[C@@H](NC(=O)c1ccc(F)c(NC(=O)c3cnc4ccc(C)cn34)c1)[C@@H](O)C2` [F111, N-(2-fluoro-5-{[(1R,2S)-2-hydroxy-6-methoxy-2,3-dihydro-1H-inden-1-yl]carbamoyl}phenyl)-6-methylimidazo[1,2-a]pyridine-3-carboxamide], 195 nM.

The same assay, now with this note: Table 2; Rat A10 cells, recombinant rat PDGF-BB, CellTiter-Glo after 68 hours.
For the compound `O=C(NCC1(O)CCC1)c1ccc(F)c(NC(=O)c2cnc3ccccn23)c1` [F91, N-(2-fluoro-5-{[(1-hydroxycyclobutyl)methyl]carbamoyl}phenyl)imidazo[1,2-a]pyridine-3-carboxamide], the IC50 amounted to 1740 nM. Take `Cc1ccc2ncc(C(=O)Nc3cc(C(=O)N[C@@H]4c5ccccc5C[C@@H]4O)c(C)cc3F)n2c1` [F88, N-(2-fluoro-5-{[(1R,2S)-2-hydroxy-2,3-dihydro-1H-inden-1-yl]carbamoyl}-4-methylphenyl)-6-methylimidazo[1,2-a]pyridine-3-carboxamide]: the IC50 turned out to be 2190 nM.

In the case of `O=C(N[C@@H]1CCC[C@H]1O)c1ccc(F)c(NC(=O)c2cnc3ccccn23)c1` [F75, N-(2-fluoro-5-{[(1R,2R)-2-hydroxycyclopentyl]carbamoyl}phenyl)imidazo[1,2-a]pyridine-3-carboxamide], the IC50 was determined as 3840 nM. Same read-out and setting: the result for `CC(C)(O)[C@H]1CCCC[C@@H]1NC(=O)c1ccc(F)c(NC(=O)c2cnc3ccccn23)c1` [F102, N-(2-fluoro-5-{[(1S,2S)-2-(2-hydroxypropan-2-yl)cyclohexyl]carbamoyl}phenyl)imidazo[1,2-a]pyridine-3-carboxamide] reads 425 nM; that for `O=C(N[C@H]1CC[C@@H](O)CC1)c1ccc(F)c(NC(=O)c2cnc3ccccn23)c1` [F104, N-{2-fluoro-5-[(4-hydroxycyclohexyl)carbamoyl]phenyl}imidazo[1,2-a]pyridine-3-carboxamide], over 10000 nM.

With `COc1ccc2ncc(C(=O)Nc3cc(C(=O)N[C@H]4c5ccccc5C[C@H]4O)ccc3F)n2c1` [F35, N-(2-fluoro-5-{[(1S,2R)-2-hydroxy-2,3-dihydro-1H-inden-1-yl]carbamoyl}phenyl)-6-methoxyimidazo[1,2-a]pyridine-3-carboxamide], the IC50 worked out at 228 nM. As for `CSCC[C@@H](CO)NC(=O)c1ccc(F)c(NC(=O)c2cnc3ccccn23)c1` [F96, N-(2-fluoro-5-{[(2S)-1-hydroxy-4-(methylsulfanyl)butan-2-yl]carbamoyl}phenyl)imidazo[1,2-a]pyridine-3-carboxamide], the IC50 was 556 nM. In the case of `Cc1ccn2c(C(=O)Nc3cc(C(=O)N[C@H]([C@@H](O)c4ccccc4)C(C)(C)O)ccc3F)cnc2c1` [F108, N-(5-{[(1S,2R)-1,3-dihydroxy-3-methyl-1-phenylbutan-2-yl]carbamoyl}-2-fluorophenyl)-7-methylimidazo[1,2-a]pyridine-3-carboxamide], the IC50 stood at 255 nM.

For orientation: IC50 means the concentration needed to halve the response being measured.
